Consider eight molecules from patent US20220400669A1, “COMPOUNDS AND METHODS FOR PROMOTING PLANT GROWTH” (King Abdullah University of Science and Technology, priority 2019, published 2022).

Entries after “also recorded” stand apart in the source; their conditions may differ.

Holding throughout (assay type): in vivo
One data set concerns Striga hermonthica seeds. Kind of data set: Striga hermonthica seed germination bioassay with root exudates of treated rice seedlings. Conditions: for decrease of Striga seed germination rate: exudates of rice seedlings treated with 5 μM compound, Pi starvation (FIG. 2). The procedure:
For SL analysis, one-week-old seedlings were transferred into 50 ml falcon tubes (two seedlings per tube), containing half-strength Hoagland nutrient solution with K2HPO4.2H2O (+Pi), and grown in the biochamber for one week. Rice seedlings were then subjected to phosphate deficiency (−Pi) for another one week. On the day of root exudates collection, rice seedlings were first treated with 5 μM Zaxinone, or MZ compounds for 6 h, and then root exudates and root tissues were collected from each tube for LC-MS/MS analysis and Striga bioassays. Striga hermonthica seed germination bioassays were conducted by following the procedure as described previously. About 50-100 sterilized Striga seeds were spread on a glass fiber filter paper disc. Then 12 discs with Striga seeds were put on a sterilized filter paper, moistened with 3 ml sterilized water in a 90 mm petri plate. The plates were sealed with parafilm and cover with aluminum foil. All the plates were kept at 30° C. for 10 days for pre-conditioning. On 11th day, six dry discs with pre-conditioned seeds were selected and put in a 90 mm petri-dish. A filter paper ring moistened with 0.9 ml sterile MilliQ water was placed in the plate. The root exudates collected from Zaxinone or MZ compounds treated rice seedlings was applied at 50 μl on each six disc. Sterile MilliQ water and standard SL analog GR24 (2.5 μM) were included as a negative and positive control, respectively. After application, Striga seeds were incubated in dark at 30° C. for 24 hours. Germination (seeds with radicle emerging through seed coat) was scored under a binocular microscope, and germination rate (%) was calculated.

For data set [1], the system named is Gigaspora margarita spores. Briefly: Gigaspora margarita spores germination. The procedure: Spores were sterilized in a solution of Streptomycine sulphate (0.03% W/V) and Chloramine T (3% W/V) and germinated in 200 μl of MZ3 and MZ5 at 5 μM or 50 nM, GR24 10 nM or a solution of Water/Acetone (12.5 μl acetone in 25 ml water). For each treatments 96 sterilized spores were placed individually in the wells of a multi-well plate and treated with freshly prepared solutions at the beginning of the experiment and after 3 days. Spores were germinated in the dark at 30° C. and the germination rate was evaluated after 3 days and 7 days.

The test system of a further data set is Striga hermonthica. Briefly: Striga hermonthica infection of rice in pots. Conditions: 5 μM, rice cv IAC-165 in pots with Striga infested soil (FIG. 13). The procedure:
Pots experiment was conducted and slightly adapted from the protocol as described previously About 20 mg (ca 8000) Striga seeds were thoroughly mixed in 1.5 L sand and soil mixture (1:1) and added in 3 L perforated plastic pot containing 0.5 L clean soil in the bottom. The pots were kept in greenhouse-controlled conditions at 35° C. under moisture to preconditioned Striga seeds for 10 days. On 11th day, one week old five rice seedlings (cv IAC165) were planted in each pot. After three days of rice planting, each pot was first irrigated with 250 ml phosphorus deficient Hoaglands nutrient solution and after four hours of irrigation 25 ml formulated MZ3, MZ5 and Zaxinone (100 μM) were sprayed. Next day, each pot was again supplied with 250 ml nutrient solution to make the final concentration of each compound to 5 μM and to move the compound to rice seedlings. Pots with and without Striga seeds were kept as the negative and positive control. Each compound was applied twice in a week up to four weeks. The rice plants were grown under normal growth condition (30° C., 70% RH) for eight weeks. The number of emerged Striga plants in each pot were counted.

Data set [2] relates to strigolactones (4-deoxyorobanchol, orobanchol) release. Kind of data set: LC-MS/MS quantification of SLs in rice root exudates. Conditions: 5 μM; for SL level of the root exudate: wild-type rice seedlings, Pi-starvation, 6 h, compared with Zaxinone (FIGS. 19, 20A-20B); for SL level / release in root exudates (4-DO, Oro): Pi starvation, in comparison with MZ1 and mock control (FIGS. 21A-21C). The procedure:
For SL analysis, one-week-old seedlings were transferred into 50 ml falcon tubes (two seedlings per tube), containing half-strength Hoagland nutrient solution with K2HPO4.2H2O (+Pi), and grown in the biochamber for one week. Rice seedlings were then subjected to phosphate deficiency (−Pi) for another one week. On the day of root exudates collection, rice seedlings were first treated with 5 μM Zaxinone, or MZ compounds for 6 h, and then root exudates and root tissues were collected from each tube for LC-MS/MS analysis and Striga bioassays.
For the quantification of SLs in rice root exudates, 50 ml of root exudates spiked with 0.672 ng of D6-5-deoxystrigol, was brought on a 500 mg/3 ml fast SPE C18 column preconditioned with 6 ml of methanol and 3 ml of water. After washing with 3 ml of water, SLs were eluted with 5 ml of acetone. The 4-deoxyorobanchol fraction (acetone-water solution) was concentrated to SL aqueous solution (˜500 μl), followed by the extraction with 1 ml of ethyl acetate. 750 μl of SLs enriched organic phase was then transferred to 1.5 ml tube and evaporated to dryness under vacuum. The dried extract was dissolved in 100 μl of acetonitrile:water (25:75, v:v) and filtered through a 0.22 µm filter for LC-MS/MS analysis.

For data set [3], the system named is SL biosynthesis genes D27, CCD7, CCD8, CO. Kind of data set: qRT-PCR transcript analysis of SL biosynthesis genes in rice roots. Conditions: 5 μM; for transcript levels of SL biosynthesis enzymes D27, CCD7, CCD8 and CO: wild-type rice seedlings, Pi-starvation, 6 h. The procedure: For transcript analysis, one-week-old seedlings were grown hydroponically in half-strength modified Hoagland nutrient solution with K2HPO4.2H2O (+Pi) and without K2HPO4.2H2O (+Pi) (−Pi) for 7 days. Seedlings were further treated with zaxinone or MZ compounds for 6 h, and tissues were collected.
Roots of rice seedling were ground and homogenized in liquid nitrogen, and total RNA was isolated using a Direct-zol RNA Miniprep Plus Kit following the manufacturer's instructions (ZYMO RESEARCH; USA). cDNA was synthesized from 1 μg of total RNA using iScript cDNA Synthesis Kit (BIO-RAD Laboratories, Inc, 2000 Alfred Nobel Drive, Hercules, Calif.; USA) according to the instructions in the user manual. The gene expression level was detected by real-time quantitative RT-PCR (qRT-PCR) which was performed using SYBR Green Master Mix (Applied Biosystems; www.lifetechnologies.com) in a CFX384 Touch™ Real-Time PCR Detection System (BIO-RAD Laboratories, Inc, 2000 Alfred Nobel Drive, Hercules, Calif.; USA). The gene expression level was calculated by normalization of a housekeeping gene in rice, Ubiquitin (OsUBQ) (Table 1). The relative gene expression level was calculated according to 2-^ΔΔCT method.
(In general: Quantitative PCR measures a nucleic acid by following its amplification.)

A short description of data set [4]: LC-MS analysis of rice plants fed with the mimics. Particulars: data not shown; for conversion into the methoxy mimic (MZ3 or MZ5) in rice plants: rice plants fed with the mimic.
A further data set concerns wild-type rice plants. Briefly: Rice phenotypes in soil (rhizotron system). Conditions: 5 μM. The procedure:
For testing MZ3 and MZ5 on rice phenotypes in the rhizotron system (48 cm×24 cm×5 cm), three-day-old seedlings were grown in soil with half-strength modified Hoagland nutrient solution containing 0.4 mM K2HPO4.2H2O (+Pi) and 5 μM zaxinone for two weeks. The solution was changed every other day, adding the chemical at each renewal. To increase the compounds stability, 1 μl/ml emulsifier (cyclohexanone+Atlas […] kindly provided by a person […] of CRODA, Gouda; The Netherlands) was added into Hoagland nutrient solution. Root surface area was analyzed with the ImageJ software.

The mark [5] stands for this setting: roots and root exudates, Pi-starved WT rice, 6 hours.

With `CC(=O)/C=C/C=C(C)/C=C/C1=C(C)CC(O)CC1(C)C` (stereo in doubt) [Zaxinone, reference compound], the “decrease of Striga seed germination rate” value in the data set with Striga hermonthica seeds was “around 29%”. Also, the spores germination result in data set [1] (Zaxinone, after 3 and 7 days) is recorded as “did not affect”. Further, the “reduction of the number of emerging Striga plants compared to the untreated control” value with Striga hermonthica amounted to 42%.

Take `CC1=C[C@H](O/C=C2/C(=O)O[C@@H]3c4ccccc4C[C@H]23)OC1=O` [GR24, reference compound]: the spore germination rate entry in data set [1] (GR24 10 nM) is reported as “highest”.

On to `CC(=O)/C=C/c1cccc(-c2ccc(O)cc2)c1` [MZ1], for which the “SL level of the root exudate” value in data set [2] was “did not show significant activity”.

On to `CC(=O)/C=C/c1cccc(Oc2ccc(O)cc2)c1` [MZ2, (E)-4-(3-(4-hydroxyphenoxy)phenyl)but-3-en-2-one], for which, in data set [3], the “transcript levels of SL biosynthesis enzymes D27, CCD7, CCD8 and CO” value (“transcript levels” for short) is “downregulating; also recorded: reduced”. For the same molecule, in data set [2], the “SL level / release in root exudates (4-DO, Oro)” value was “significant decrease” and the “SL level of the root exudate” value is on record as “did not affect”. Besides, the “conversion into the methoxy mimic (MZ3 or MZ5) in rice plants” value in data set [4] is given as “not detected”.

`CC(=O)c1cccc(-c2cccc(-c3ccc(O)cc3)c2)c1` [MZ4, 1-(4″-hydroxy-[1,1′:3′,1″-terphenyl]-3-yl)ethan-1-one]: in the data set on Striga hermonthica seeds (exudates of rice plants treated at 5 μM, Pi starvation), the “effect on Striga seed germination” value is recorded as “did not suppress”. In data set [3], the “transcript levels” value is listed as “downregulating; also recorded: reduced”. Further, in data set [2], the “SL level / release in root exudates (4-DO, Oro)” value is “tendency to reduce” and the “SL level of the root exudate” value is listed as “did not affect”. The “conversion into the methoxy mimic (MZ3 or MZ5) in rice plants” value in data set [4] is recorded as “not detected”.

`COc1ccc(-c2cccc(-c3cccc(C(C)=O)c3)c2)cc1` [MZ5]: the “decrease of Striga seed germination rate” value in the data set with Striga hermonthica seeds is reported as roughly 46%. Besides, the “CCD7 and CO transcript level compared with Zaxinone” value in data set [3] (wild-type rice roots, Pi starvation, 6 h (FIGS. 12A-12D)) is reported as “significantly lower”. Besides, in data set [3], the “transcript levels” value is listed as “pronounced decrease”. Further, in data set [1] (5 μM and 50 nM, 3 and 7 days), the spore germination rate result was “no effect”. Also, in data set [2] (setting [5]), the “effect on 4-deoxyorobanchol relative to Zaxinone” value was “significantly stronger” and the “effect on SL levels relative to Zaxinone” value is on record as “reduced SL levels more than zaxinone”. Further, the “SL level of the root exudate” value in data set [2] is “obvious effect”. The “root surface area and root numbers of WT plants compared with zaxinone treatment” value in the data set with wild-type rice plants is recorded as “increased more”. The “reduction of the number of emerging Striga plants compared to the untreated control” value in the data set on Striga hermonthica worked out at 55%. Further, in data set [4], the “presence in shoots of rice plants fed through roots” value was “detected”.

In the case of `CC(=O)c1cccc(-c2cccc(-c3cccc(-c4cccc(-c5ccc(O)cc5)c4)c3)c2)c1` [MZ6], the “SL level of the root exudate” value in data set [2] was “did not show significant activity”.

Turning to `CC(=O)c1cccc(-c2cccc(-c3cccc(-c4cccc(-c5cccc(-c6ccc(C)cc6)c5)c4)c3)c2)c1` [MZ7], the “SL level of the root exudate” value in data set [2] is listed as “did not show significant activity”.
